Results from PMC8038331, “Discovery of a Novel Acetylcholinesterase Inhibitor by Fragment-Based Design and Virtual Screening” (Molecules, 2021).
Where “and” joins values, the source holds several entries; their conditions need not be identical. Equal values may be shown once.

Tests used:
[1] = target: T1, acetylcholinesterase from Electrophorus electricus (eeAChE) (Electrophorus electricus, UniProt O42275); test: biochemical; format: biochemical
T1 construct: purchased Sigma-Aldrich
Procedure: However, the docking simulations were conducted on human AChE (rhAChE).
The microplate assay used for measuring AChE inhibitory activity was as described by Ellman with the modifications added by López. Acetylthiocholine iodide (ATCI) in a solution with 5,5′-dithiobis(2-nitrobenzoic acid) (DTNB) was used as a substrate for the acetylcholinesterase from Electrophorus electricus (Steinheim, Sigma-Aldrich, Germany). 50 μL of AChE (0.25 U/mL) dissolved in phosphate buffer (8 mM K2HPO4, 2.3 mM NaH2PO4, 0.15 M NaCl, pH 7.5) and 50 μL of the sample dissolved in the same buffer were added to the wells. The plates were incubated for 30 min at room temperature before the addition of 100 μL of the substrate solution (0.04 M Na2HPO4, 0.2 mM DTNB, 0.24 mM ATCI, pH 7.5). […] Enzyme activity was calculated as an inhibition percentage compared to an assay using a buffer without any inhibitor. […] The AChE inhibitory data were analyzed with the software package Prism 9 (GraphPad Inc., San Diego, USA). The IC50 values were measured in triplicate, and the results are presented as means ± SD.

[2] = Neurotoxicity test, MTT-dye reduction assay on neuro-2A cells; format: cell-based, murine; conditions: mouse, neuro-2A neuroblastoma cells, 72 h incubation
Procedure: The cytotoxicity of compound 8 was tested on neuro-2A cells as described in the Materials and Мethods section.
To assess the neurocytotoxicity of the selected compound, murine neuroblastoma neuro-2A cells (German collection DSMZ, Braunschweig, Germany) were used. They were cultivated under standard conditions: complete medium (90% DMEM, 10% heat-inactivated FBS, and non-essential amino acids); 37 °C and 5% CO2 in a fully humidified atmosphere. The cell line was kept in the logarithmic growth phase by splitting 1:4 once a week using trypsin/EDTA. About 30% of the cells grew like neuronal cells. For the experimental evaluation of the cytotoxicity, the cells were plated in 96-well flat-bottomed plates at the recommended density of around 1100 cells/25 cm^2. After 24 h, the cells were treated with a series of concentrations (100, 50, 25, 12.5, 6.25 µM) of the tested compound, and after 72 h incubation, an MTT-dye reduction assay was performed. MTT stock solution (10 mg/mL in PBS) was added (0.01 mL/well) at the end of incubation. Plates were further incubated at 37 °C for 4 h. Next, the formazan crystals were dissolved by the addition of 0.110 mL/well 5% formic acid in 2-propanol (v/v). Absorption was measured at 580 nm wavelength on an automated ELISA reader Labexim LMR1. […]

[3] = system: murine neuroblastoma neuro-2A cells; conditions: read-out: Neurotoxicity on neuro-2A cells (IC50); cited from earlier work

T1 sequence (O42275 24-633): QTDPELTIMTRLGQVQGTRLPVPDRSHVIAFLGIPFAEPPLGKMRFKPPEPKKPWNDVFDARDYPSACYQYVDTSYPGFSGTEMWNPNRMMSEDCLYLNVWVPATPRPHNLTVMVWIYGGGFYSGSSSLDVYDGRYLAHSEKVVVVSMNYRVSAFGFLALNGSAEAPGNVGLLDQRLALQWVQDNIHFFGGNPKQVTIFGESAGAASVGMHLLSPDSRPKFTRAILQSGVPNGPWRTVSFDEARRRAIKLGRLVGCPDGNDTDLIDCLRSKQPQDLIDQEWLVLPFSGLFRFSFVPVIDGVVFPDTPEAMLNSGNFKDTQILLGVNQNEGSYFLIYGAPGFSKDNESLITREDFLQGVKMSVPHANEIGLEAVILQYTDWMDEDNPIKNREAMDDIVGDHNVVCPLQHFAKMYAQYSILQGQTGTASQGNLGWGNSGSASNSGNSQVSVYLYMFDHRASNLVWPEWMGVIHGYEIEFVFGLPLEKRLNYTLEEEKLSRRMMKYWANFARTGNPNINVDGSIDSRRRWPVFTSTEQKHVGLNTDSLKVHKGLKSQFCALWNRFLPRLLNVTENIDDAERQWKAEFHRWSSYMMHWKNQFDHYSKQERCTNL

SMILES	Times more active than GAL (AChE inhibition) [1] [times]	IC50 ([1]; eeAChE, Ellman's method, 30 min preincubation, mean ± SD, triplicate, read-out: Inhibitory activity on eeAChE (IC50))	IC50 at 72 h [2] [nM]	IC50 [3] [nM]
COc1ccc2c3c1O[C@H]1C[C@@H](O)C=C[C@@]31CCN(CCNC(=O)CCc1ccccc1-c1ccccc1)C2 [Compound 8, 3-(biphenyl-2-yl)-N-{2-[(4aS,6R,8aS)-6-hydroxy-3-methoxy-5,6,9,10-tetrahydro-4aH-[1]benzofuro[3a,3,2-ef][2]benzazepin-11(12H)-yl]ethyl}propanamide]	68	28 nM and 27.8 nM	> 100000	–
COc1ccc2c3c1O[C@H]1C[C@@H](O)C=C[C@@]31CCN(C)C2 [GAL, Galantamine]	–	–	–	> 50000
